Laboratory results as given in ChEMBL document CHEMBL1144618, “Convenient synthesis and in vitro pharmacological activity of 2-thioanalogs of salvinorins A and B” (Bioorg Med Chem Lett, 2007).

How the values were obtained:
[1] = target: Kappa-type opioid receptor (Rattus norvegicus, UniProt P34975); test: Displacement of [3H]U-69593 from rat cloned KOR
[2] = target: Kappa-type opioid receptor (Homo sapiens, UniProt P41145); test: Activity at human kappa opioid receptor expressed in HEK293 cells as intracellular calcium mobilization; type: functional, cell-based
Kappa-type opioid receptor (Homo sapiens, UniProt P41145), sequence (P41145 whole entry): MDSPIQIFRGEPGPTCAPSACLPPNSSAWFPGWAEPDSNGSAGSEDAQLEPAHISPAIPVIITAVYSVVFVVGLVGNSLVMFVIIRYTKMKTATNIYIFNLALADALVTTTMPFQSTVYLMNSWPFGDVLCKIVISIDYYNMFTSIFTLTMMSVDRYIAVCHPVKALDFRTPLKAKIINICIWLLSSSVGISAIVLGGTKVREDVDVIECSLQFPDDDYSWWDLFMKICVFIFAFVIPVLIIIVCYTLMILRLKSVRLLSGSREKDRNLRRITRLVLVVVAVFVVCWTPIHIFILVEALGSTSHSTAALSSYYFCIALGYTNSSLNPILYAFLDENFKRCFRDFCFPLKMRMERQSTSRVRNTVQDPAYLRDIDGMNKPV

Kappa-type opioid receptor (Rattus norvegicus, UniProt P34975), sequence (P34975 whole entry): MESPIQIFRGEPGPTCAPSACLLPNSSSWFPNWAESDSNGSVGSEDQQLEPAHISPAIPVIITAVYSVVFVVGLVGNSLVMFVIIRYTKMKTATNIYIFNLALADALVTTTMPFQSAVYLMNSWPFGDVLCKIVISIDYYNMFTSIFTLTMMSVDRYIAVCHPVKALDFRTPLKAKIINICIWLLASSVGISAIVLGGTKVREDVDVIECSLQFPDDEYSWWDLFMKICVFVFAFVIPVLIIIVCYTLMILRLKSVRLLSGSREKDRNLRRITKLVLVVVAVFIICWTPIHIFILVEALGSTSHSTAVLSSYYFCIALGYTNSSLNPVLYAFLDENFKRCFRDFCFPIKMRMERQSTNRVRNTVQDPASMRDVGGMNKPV

How did the Ki [1] turn out when COC(=O)[C@@H]1C[C@@H](SC(C)=O)C(=O)[C@H]2[C@@]1(C)CC[C@H]1C(=O)O[C@H](c3ccoc3)C[C@]21C [2-EPI-2-THIOSALVINORIN A] was run?
The Ki was 151 nM.

And the EC50 [2]?
Its EC50 is 123 nM.

What about the Emax [2] of the same compound?
Its Emax is 106%.

With COC(=O)[C@@H]1C[C@@H](S)C(=O)[C@H]2[C@@]1(C)CC[C@H]1C(=O)O[C@H](c3ccoc3)C[C@]21C [2-EPI-2-THIOSALVINORIN B] as the compound, how does the Ki [1] read?
Its Ki is 546 nM.

What about the EC50 [2] of the same compound?
Its EC50 is > 2000 nM.

What about the Emax [2] of the same compound?
The Emax was 71%.

Which Ki [1] does the source give for COC(=O)[C@@H]1C[C@H](S)C(=O)[C@H]2[C@@]1(C)CC[C@H]1C(=O)O[C@H](c3ccoc3)C[C@]21C [2-THIOSALVINORIN B] here?
Its Ki is 54.5 nM.

And the EC50 [2]?
The EC50 was 287 nM.

And the Emax [2]?
The Emax was 89%.
